pIC50: −log10 of the molar value.
These molecules were tested on 8XTBD luciferase reporter (YAP) in HEK293T cells (assay: YAP Reporter Assay). Conditions: Homo sapiens, HEK-293T; HEK293T cells stably transfected with 8XTBD luciferase reporter and pRLTK; 24-hr incubation; top concentration 3 μM; read-out: Firefly Luciferase IC50.
Format: cell-based
`CCOC(=O)Cc1nnc(-c2ccccc2Nc2ccc(C(F)(F)F)cc2)o1` [Compound 1, ethyl 2-(5-(2-((4-(trifluoromethyl)phenyl)amino)phenyl)-1,3,4-oxadiazol-2-yl) acetate] was tested, and the pIC50 was 6.00 to 7.00.
For `OCCc1nnc(-c2ccccc2Nc2ccc(C(F)(F)F)cc2)o1` [Compound 2, 2-(5-(2-((4-(trifluoromethyl)phenyl)amino)phenyl)-1,3,4-oxadiazol-2-yl)ethan-1-ol], the pIC50 was greater than 7.00.
Work on `CCOC(=O)c1nnc(-c2ccccc2Nc2ccc(C(F)(F)F)cc2)o1` [Compound 3, ethyl 5-(2-((4-(trifluoromethyl)phenyl)amino)phenyl)-1,3,4-oxadiazole-2-carboxylate] yielded a pIC50 greater than 7.00.
For `Nc1nnc(-c2ccccc2Nc2ccc(C(F)(F)F)cc2)o1` [Compound 4, 5-(2-((4-(trifluoromethyl)phenyl)amino)phenyl)-1,3,4-oxadiazol-2-amine], the pIC50 was 6.00 to 7.00.
With `OCc1nnc(-c2ccccc2Nc2ccc(C(F)(F)F)cc2)o1` [Compound 5, (5-(2-((4-(trifluoromethyl)phenyl)amino)phenyl)-1,3,4-oxadiazol-2-yl)methanol] the pIC50 was greater than 7.00.
Work on `CN(C)c1nnc(-c2ccccc2Nc2ccc(C(F)(F)F)cc2)o1` [Compound 6, N,N-dimethyl-5-(2-((4-(trifluoromethyl)phenyl)amino)phenyl)-1,3,4-oxadiazol-2-amine] yielded a pIC50 of 5.30 to 6.00.
With `COC(=O)c1nnc(-c2ccccc2Nc2ccc(C(F)(F)F)cc2)o1` [Compound 8, methyl 5-(2-((4-(trifluoromethyl)phenyl)amino)phenyl)-1,3,4-oxadiazole-2-carboxylate] the pIC50 was 6.00 to 7.00.
`CCOC(=O)CNc1nnc(-c2ccccc2Nc2ccc(C(F)(F)F)cc2)o1` [Compound 9, ethyl (5-(2-((4-(trifluoromethyl)phenyl)amino)phenyl)-1,3,4-oxadiazol-2-yl)glycinate] was tested, and the pIC50 was 5.30 to 6.00.
Work on `OCCNc1nnc(-c2ccccc2Nc2ccc(C(F)(F)F)cc2)o1` [Compound 10, 2-((5-(2-((4-(trifluoromethyl)phenyl)amino)phenyl)-1,3,4-oxadiazol-2-yl)amino)ethan-1-ol] yielded a pIC50 of 6.00 to 7.00.
With `CCOC(=O)CN(C)c1nnc(-c2ccccc2Nc2ccc(C(F)(F)F)cc2)o1` [Compound 11, ethyl N-methyl-N-(5-(2-((4-(trifluoromethyl)phenyl)amino)phenyl)-1,3,4-oxadiazol-2-yl)glycinate] the pIC50 was 6.00 to 7.00.
In the case of `CNc1nnc(-c2ccccc2Nc2ccc(C(F)(F)F)cc2)o1` [Compound 12, N-methyl-5-(2-((4-(trifluoromethyl)phenyl)amino)phenyl)-1,3,4-oxadiazol-2-amine], the pIC50 was 6.00 to 7.00.
`O=C1NCC(c2nnc(-c3ccccc3Nc3ccc(C(F)(F)F)cc3)o2)O1` (centres unmarked) [Compound 13, 5-(5-(2-((4-(trifluoromethyl)phenyl)amino)phenyl)-1,3,4-oxadiazol-2-yl)oxazolidin-2-one] was tested, and the pIC50 was 6.00 to 7.00.
`O=C(NO)c1nnc(-c2ccccc2Nc2ccc(C(F)(F)F)cc2)o1` [Compound 14, N-hydroxy-5-(2-((4-(trifluoromethyl)phenyl)amino)phenyl)-1,3,4-oxadiazole-2-carboxamide] gave a pIC50 greater than 7.00.
Molecule `NC(=O)c1nnc(-c2ccccc2Nc2ccc(C(F)(F)F)cc2)o1` [Compound 15, 5-(2-((4-(trifluoromethyl)phenyl)amino)phenyl)-1,3,4-oxadiazole-2-carboxamide] has a pIC50 greater than 7.00.
With `Cc1ccc(S(=O)(=O)N2C(=O)OCC2c2nnc(-c3ccccc3Nc3ccc(C(F)(F)F)cc3)o2)cc1` (centres unmarked) [Compound 16, 3-tosyl-4-(5-(2-((4-(trifluoromethyl)phenyl)amino)phenyl)-1,3,4-oxadiazol-2-yl)oxazolidin-2-one] the pIC50 was 6.00 to 7.00.
With `O=C1NC(c2nnc(-c3ccccc3Nc3ccc(C(F)(F)F)cc3)o2)CO1` (centres unmarked) [Compound 17, 4-(5-(2-((4-(trifluoromethyl)phenyl)amino)phenyl)-1,3,4-oxadiazol-2-yl)oxazolidin-2-one] the pIC50 was greater than 7.00.
For `CN(CCO)c1nnc(-c2ccccc2Nc2ccc(C(F)(F)F)cc2)o1` [Compound 19, 2-(methyl(5-(2-((4-(trifluoromethyl)phenyl)amino)phenyl)-1,3,4-oxadiazol-2-yl)amino)ethan-1-ol], the pIC50 was 6.00 to 7.00.

Source: patent US11661403B2, “Oxadiazole compounds” (Vivace Therapeutics, Inc., priority 2018, dated 2023)
